In US20070275953A1 (priority 2003, published 2007):
Like-named read-outs stand apart in the source and are kept apart here.

Legend:
[1] = target: T1, HIV-1 reverse transcriptase (Human immunodeficiency virus type 1 group M subtype B, UniProt P04585); experiment: HIV-1 in vitro reverse transcriptase activity (fixed-time RNA dependent DNA polymerase assay); format: biochemical; details: residual RT activity, compound at 10 μM; RT activity without compound set at 100%
T1 construct: fixed-time assay for HIV-1 reverse transcriptase RNA dependent DNA polymerase activity; RT was purchased from Calbiochem; purchased Calbiochem CAL382129-500
Description: For the in vitro inhibition studies of the HIV-1 reverse transcriptase activity, stock solutions of the compounds of the present invention were prepared in dimethyl sulfoxide at a final concentration of 10 mM and kept at room temperature. Nevirapine was purchased from Boehringer Ingelheim. Efavirenz was received from the NIH AIDS Research and Reference Reagent Program.
In vitro inhibition studies used a fixed-time assay for HIV-1 reverse transcriptase RNA dependent DNA polymerase activity. RT was purchased from Calbiochem (ref CAL382129-500). One unit of RT corresponds to the amount of enzyme which incorporates one nanomole of [^3H]TTP in 10 minutes at 37° C.
Assays were performed in a final volume of 50 μl. […] Reaction mixtures were incubated at 37° C. for 10 min. The incorporation rate was determined by a standard trichloroacetic acid precipitation procedure (adapted from Current protocols in molecular biology. Eds Wiley, MGH Harvard medical school) and liquid scintillation counting using a Wallac scintillation counter.
The in vitro activity of the compounds, at a final concentration of 10 μM, on the reverse transcriptase (RT) activity of HIV-1 is derivable from the relative (%) reduction in RT activity. Hereby, the RT activity in the absence of any of the compounds is set at 100%.

[2] = tested on: HIV-1 mutant Cys181RT in P4 cells; experiment: Anti-HIV assay on P4 cells, Cys181RT mutant; format: cell-based
Excerpt: (§1) In order to introduce mutation(s) at the level of the pol gene coding for the RT in the pNL4-3 plasmid containing the complete viral genome (Adachi et al., 1986. J. Virol., Vol. 59 p 284-291) we used the “Quick change mutagenesis kit” (Stratagene). The following mutations were separately introduced in pNL4-3: L100I, K103N, V108I, Y181C, Y188C, and the double mutations K103N/V108I. These mutations were chosen because of the resistance that they confer to existing NNRTI. The production procedure of the mutant viral stocks is identical to the one described above.
Anti-HIV activity and cytotoxicity of the compounds were tested on a P4 cell line. The P4 cell line (Clavel & Charneau, 1994. J. Virol., Vol. 68 p 1179-1185) was provided by Dr. François Clavel (Unité de recherche antivirale de l'hôpital Xavier Bichat Paris: Inserm). The P4 cells were cultured in complete DMEM medium supplemented with 10% fetal bovine serum (FBS), 0.5% of Penicillin/Streptomycin and G418 at 0.5 mg/ml. Exponentially growing cells were trypsinized, centrifuged and split twice weekly at 5.10^4 cells/ml.
The P4 cells are HIV-infectible Hela-CD4 cells that carry the bacterial lacZ gene under the control of the HIV-1 long terminal repeat (LTR). In this cell line, transcription of the LacZ gene is driven by the HIV-1 LTR. As such, the cytoplasmic accumulation of β-galactosidase is strictly dependent on the presence of the HIV transactivator Tat produced during the intracellular viral replication (Clavel & Charneau, 1994. J. Virol., Vol. 68, p. 1179-1185). In other words, in this system, the expression level of the β-galactosidase gene is proportional to the viral replication.
Briefly, in the anti-HIV assay 100 Ål of P4 cells were plated in 96-well plate at a concentration of 0.4 10^5 cells/ml and incubated at 37° C., 5% CO2. After 48 h, the medium was removed and 100 Ål of the different drugs dilutions were added to the cells. Four hours after the addition of the drugs all cells were infected with equal amount of cell-free virus, corresponding to 100 ng of HIV p24 antigen. After 48 h of incubation at 37° C., 5% CO2, β-galactosidase activity was measured using chlorophenol red-β-D-galactopyranoside assays.
The absorbance was measured on a Benchmark™ Microplate Reader (Biorad) (λ=570 nm) and compared with 12 cell control replicates (no virus or drug added) and 12 virus control wells (no drug added). Each assay was performed a minimum of three times. The 50% effective concentration (Ec50) was calculated from each dose response curve using the CurveExpert 1.3 software. As Nevirapine activity corresponds to its published values (10-100 nM), the data are consistent with other measures of viral replication.

[3] = tested on: HIV-1 mutant Ile100RT in MT4 cells; experiment: Anti-HIV assay on MT4 cells, Ile100RT mutant; format: cell-based
Excerpt: as §1
Anti-HIV activity of the compounds was tested on MT-4 cell line. The MT-4 cell line (Larder et al. 1989. Sciences, Vol. 243 p 1731) was received from the NIH AIDS Research and Reference Reagent Program. These cells were cultured in RPMI medium supplemented with 10% fetal bovine serum (FBS), and 1% Penicillin/Streptomycin. The cultures were split regularly to keep cells densities between 0.3 to 1.2 10^6 cells/ml.
The MT-4 cells rapidly die upon infection by HIV. In this system there is an inverse correlation between cells survival and the amount of viral replication.
Briefly, in the anti-HIV assay exponentially growing MT-4 cells were infected with HIV-1. 100 μl of infected MT-4 cells were seeded in 96-well plate at a concentration of 0.4 10^5 cells/ml, and 100 μl of the different drugs dilutions were added to the cells. After 4 days of incubation at 37° C., 5% CO2, cells survival was measured using MTS (3-(4-5-dimethylthiazol-2-yl)-5-(−(3-carboxymethoxyphenyl)-2-(4-sulfophenyl)-2H-tetrazolium) assays. This compound is reduced by viable cells in a colored soluble formazan salt.
The absorbance was measured on a Benchmark™ Microplate Reader (Biorad) (λ=490 nm) and compared with 12 cell control replicates (nor virus nor drug added) and 12 virus control wells (no drug added). Each assay was performed a minimum of three times. The 50% effective concentration (EC50) was calculated from each dose response curve using the CurveExpert 1.3 software.

[4] = P4, mutant Cys181RT, read-out: EC50 Cys181RT P4
[5] = Human immunodeficiency virus 1, MT4, read-out: EC50 Ile100RT MT4
[6] = Human immunodeficiency virus 1, read-out: EC50 Cys181RT P4

SMILES | Relative (%) RT activity in vitro (compound added at 10 μM) [1] | EC50 [2, 4] | EC50 [3, 5] | EC50 [2, 6] | EC50 Ile100RT MT4 ([3]; MT4, mutant Ile100RT) | EC50 ([3]; MT4, mutant Ile100RT, read-out: EC50 Ile100RT MT4)
CCOC(=O)c1c(OC2CC(C)CC(C)C2)c(CC)c(C)[nH]c1=O (single isomer, unassigned) [Z37inv] | 5.5% | 1970 nM |  |  |  | 
O=C1Nc2ccc(Cl)cc2[C@@](C#CC2CC2)(C(F)(F)F)O1 [Efavirenz, reference compound] |  |  | 178 nM | < 1 nM |  | 
Cc1ccnc2c1NC(=O)c1cccnc1N2C1CC1 [Nevirapine, reference compound] | 16.7% |  | 2060 nM | 10000 nM |  | 
CCc1c(C)[nH]c(=O)c(CO)c1OC1CC(C)CC(C)C1 (stereo not shown) [Z45inv] | 12.1% | 496 nM |  |  |  | 
CCc1c(C)[nH]c(=O)c([N+](=O)[O-])c1OC1CC(C)CC(C)C1 (stereo not shown) [Z91inv, 3-nitro-5-ethyl-6-methyl-4-[(3,5-dimethylcyclohexyl)oxy]pyridine-2(1H)-one] | 0% |  | 1380 nM | 46 nM |  | 
CCc1c(C)[nH]c(=O)c(CSC(C)=O)c1OC1CC(C)CC(C)C1 (stereo not shown) [Z114] | 0% | 87 nM |  |  | Inactive | 
CCc1c(C)[nH]c(=O)c(N(C)C)c1OC1CC(C)CC(C)C1 (stereo not shown) [Z150, 3-(dimethylamino)-5-ethyl-6-methyl-4-[(3,5-dimethylcyclohexyl)oxy]pyridine-2(1H)-one] | 0.9% |  | 87 nM | 61 nM |  | 
CCc1c(C)[nH]c(=O)c(CN=[N+]=[N-])c1OC1CC(C)CC(C)C1 (stereo not shown) [Z153] | 0.7% | 108 nM |  |  |  | 187 nM
CCc1c(C)[nH]c(=O)c(C)c1OC1CC(C)CC(C)C1 (stereo not shown) [Z154] | 1.6% |  |  |  |  | 
